From patent US20020028836A1, “Potassium channel openers” (priority 2000, published 2002)
pEC50: −log10 of the molar value. Like-named read-outs stand apart in the source and are kept apart here.

Experiments:
[1] = system: primary cultured guinea-pig urinary bladder (GPB) cells; assay: Membrane hyperpolarization (MHP) assay, DiBAC(4)3 / FLIPR; assay type: cell-based; settings: for pEC50: concentration that elicits 50% of the maximal response for the test sample
Procedure, shortened: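 Primary smooth-muscle cells from male guinea-pig bladder, grown to confluence, loaded 30 min at 37° C with 5 μM DiBAC(4)3 in HEPES buffer pH 7.4. Fluorescence drop on FLIPR followed 25 min after compound; steady-state hyperpolarization normalized to 10 μM P1075 (100%), EC50 from four-parameter fit of five concentrations.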

[2] = system: tissue strips obtained from Landrace pig bladders; assay: Functional potassium channel opening activity in isolated bladder strips (field-stimulated twitch); settings: for Index: ED50 for P1075 divided by ED50 for the test agonist in a given tissue, averaged; for pEC50: amount of agent necessary to cause 50% of the agent's maximal response, read-out: ED50 (the source's name); for Emax / Efficacy (% P1075): maximal efficacy relative to P1075, field stimulation 0.05 Hz, 0.5 ms, 20 volts
Procedure, shortened: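 Mucosa-free female Landrace pig bladder strips in Krebs Ringer bicarbonate (pH 7.4, 37° C., 0.004 mM propranolol), 1.0 g preload, field-stimulated at 0.05 Hz, 0.5 ms, 20 V for twitch. Cumulative concentration-response curves; maximal efficacy as % of P1075, ED50 fitted, potency index = P1075 ED50/test ED50 per tissue, averaged.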

[3] = system: bladder contractions in male CD rats; assay: In vivo bladder efficacy protocol (isovolumetric contractions model); design: species or system rat; settings: iv, cumulative doses; dose reducing area under the curve of bladder contractions by 30% relative to control; urethane-anesthetized rats
Source text: The utility of compounds of the present invention for the treatment of urinary incontinence, bladder overactivity, and bladder instability is illustrated by the ability of compounds of the present invention to inhibit bladder contractions in vivo. The following method is illustrative of the in vivo bladder efficacy of compounds of the present invention.
Male CD rats (400-450 g) were anesthetized with urethane (0.6 g/kg ip+0.6 g/kg sc). The left femoral vein was cannulated with polyethylene (PE-50) tubing for the administration of test compound. A third polyethylene catheter (PE-60) was inserted 3-4 mm into the apex of the bladder dome and secured using a 5-0 silk purse string suture. The bladder was emptied via this catheter and additionally by applying slight manual pressure on the lower abdomen. The urinary catheter was connected using a Y-tube connector to both a pressure transducer and a syringe pump. The urethra was then ligated using 4-0 silk suture and the bladder was slowly filled using a constant infusion of room temperature saline at the rate of 0.1 mL/min until spontaneous rhythmic contractions were evident (1.0-1.3 mL). After the contractions stabilized to a consistent pattern, bladder pressure was monitored for 20 minutes before and after a dose of the vehicle (equal parts of β-cyclodextrin stock solution (100 g β-cyclodextrin dissolved in 200 mL) and sterile water) alone. Then three doses of a test compound were administered cumulatively intravenous (iv) at 20 minute intervals. Each dosing solution (1 mL/kg) was warmed to body temperature before dosing and was infused over 3 minutes to minimize dosing artifacts on the bladder pressure trace. Data were averaged over the last 10 minutes of each period and presented as percent change from control. Area under the curve of the bladder contractions was determined from the respective waveforms using a Modular Instruments, Inc. computerized data acquisition system and averaged over the last ten minutes of each twenty minute period. The doses required to reduce the area under the curve of the bladder contractions by 30% (AUC ED30%) relative to control were estimated using a customized Excel spreadsheet.

[4] = Cavia porcellus, maximal steady-state hyperpolarization, normalized to response with 10 μM P1075 (100%)

Structure (SMILES)	pEC50 ([1]; Cavia porcellus)	pEC50 ([2]; Sus scrofa)	pEC50 [2]	pEC50 [1]	Emax [1, 4] [%]	Index [2]	Emax ([2]; Sus scrofa) [%]	AUC EC30 [3] [µmol/kg]	Efficacy (% P1075) [2] [% P1075]	Maximal Response (% P1075) ([1]; maximal steady-state hyperpolarization, normalized to response with 10 μM P1075 (100%))
CC(C)(C)C(NC(=O)c1ccc(Cl)cc1)NC(=NC#N)Nc1cccnc1 (stereo not drawn) [Example 52, 4-chloro-N-(1-{[(cyanoimino)(3-pyridinylamino)methyl]amino}-2,2-dimethylpropyl)benzamide]	6.57	4.72			72	0.012	72	0.78		
C=CCC(C)(C)C(NC(=O)c1ccc(Cl)cc1)NC(=NC#N)Nc1cccnc1 (single isomer, unassigned; (+)) [Example 91, (+) 4-chloro-N-(1-{[(cyanoimino)(3-pyridinylamino)methyl]amino}-2,2-dimethyl-4-pentenyl)benzamide]			6.08	5.54		0.360		>10	46	68
CC(C)(C)CC(NC(=O)c1ccc(Cl)cc1)NC(=N[N+](=O)[O-])Nc1cccnc1 (single isomer, unassigned; (-)) [Example 126, (−) 4-chloro-N-(1-{[(nitroimino)(3-pyridinylamino)methyl]amino}-3,3-dimethylbutyl)benzamide]			5.42			0.096		13.5	94	

Continued, in another order:

pEC50 ([1]; Cavia porcellus)	pEC50 ([2]; Sus scrofa)	pEC50 [2]	pEC50 [1]	Structure (SMILES)	Emax [1, 4] [%]	Index [2]	Emax ([2]; Sus scrofa) [%]	AUC EC30 [3] [µmol/kg]	Efficacy (% P1075) [2] [% P1075]	Maximal Response (% P1075) ([1]; maximal steady-state hyperpolarization, normalized to response with 10 μM P1075 (100%))
	5.31			CC(Cl)(Cl)C(NC(=O)c1cccc(Cl)c1)NC(=NC#N)Nc1ccc(Cl)nc1 (stereo not drawn) [Example 153, 3-chloro-N-(2,2-dichloro-1-{[[(6-chloro-3-pyridinyl)amino](cyanoimino)methyl]amino}propyl)benzamide]		0.014	93	1		
		6.16		CC(Cl)(Cl)C(NC(=O)c1ccc(Cl)cc1)NC(=NC#N)Nc1ccc(Cl)nc1 (stereo not drawn) [Example 160, 4-chloro-N-(2,2-dichloro-1-{[[(6-chloro-3-pyridinyl)amino](cyanoimino)methyl]amino}propyl)benzamide]		0.221	98	1.7		
7.40	5.30			Cc1ccc(C(=O)NC(NC(=NC#N)Nc2ccccc2)C(Cl)(Cl)Cl)cc1 (stereo not drawn) [Example 46, N-(1-{[anilino(cyanoimino)methyl]amino}-2,2,2-trichloroethyl)-4-methylbenzamide]	105	0.015	84	0.70		
	4.77		6.24	Cc1ccc(C(=O)NC(NC(=NC#N)Nc2cccnc2)C(C)(C)C)cc1 (stereo not drawn) [Example 51, N-(1-{[(cyanoimino)(3-pyridinylamino)methyl]amino}-2,2-dimethylpropyl)-4-methylbenzamide]	88	0.006		0.28	100	
